# Experimental data taken from patent US11944635B1, “Compositions and methods for treating epilepsy” (priority 2023, dated 2024).
# “Also recorded” adds a separate entry of the source.
# Test: Hepatic markers (ALT, AST, ALP, GGT, total bilirubin) in the 5-week human study
# Type: in vivo
# Conditions: 5 weeks, versus placebo
# Method: Each patient visited the laboratory 6 times in total. During each visit, a sample of venous blood was taken from forearm following an overnight fast and sample of urine was obtained. All blood and urine samples were analyzed in the same certified institutional biochemical laboratory, using the standard operating procedures.
# Hepatic (ALT, AST, ALP, GGT, and total bilirubin) markers were also measured.
# Moreover, these changes we <1 standard deviation and therefore viewed as not clinically meaningful. As noted earlier, >3 SD over normative values were classified as an AE.
smiles,measurement,setting,value
"C=C(C)[C@@H]1CCC(C)=C[C@H]1c1c(O)cc(CCCCC)cc1O [CBD, 2-[(1R,6R)-6-Isopropenyl-3-methylcyclohex-2-en-1-yl]-5-pentylbenzene-1,3-diol]",plasma alanine transaminase (ALT),,remained effectively unchanged
same,plasma alkaline phosphatase (ALP),,remained effectively unchanged
same,plasma total bilirubin,,remained effectively unchanged
same,plasma gamma-glutamyl transferase (GGT),main effect of dose P=0.038,slightly higher; also recorded: remained effectively unchanged
same,plasma aspartate transaminase (AST),main effect of dose P=0.047,higher in the placebo condition; also recorded: remained effectively unchanged
